Assay in all cases: cell-based
One test addresses hNav1.7 (Homo sapiens, UniProt Q15858). Format: cell-based. Conditions: IonWorks Quattro, use-dependent protocol, hNav1.7; read-out: IWQ Use Nav1.7. Background: The patch-clamp technique gives a direct electrical read-out from membranes.
For another test, the target named is hNav1.5 (Homo sapiens, UniProt Q14524). Conditions: IonWorks Quattro, use-dependent protocol, hNav1.5; read-out: IWQ Use Nav1.5.
The next test has as its target hNav1.3 (Homo sapiens, UniProt Q9NY46). Particulars: IonWorks Quattro, use-dependent protocol, hNav1.3; read-out: IWQ Use Nav1.3.

Positions of bridges follow the written chain, without caps; N, C: chain ends. Non-standard residues stand in square brackets, D forms with d. Residues, ends and D or L forms follow the SMILES beside them. Phe(3,4-(OMe)2) = COc1ccc(C[C@H](N)C(=O)O)cc1OC; Phe(3,4-Cl2) = N[C@@H](Cc1ccc(Cl)c(Cl)c1)C(=O)O; Phe(4-CF3) = N[C@@H](Cc1ccc(C(F)(F)F)cc1)C(=O)O; Bpa = N[C@@H](Cc1ccc(C(=O)c2ccccc2)cc1)C(=O)O; Phe(4-I) = N[C@@H](Cc1ccc(I)cc1)C(=O)O

Chain of hNav1.5 (Q14524 whole entry, looked up): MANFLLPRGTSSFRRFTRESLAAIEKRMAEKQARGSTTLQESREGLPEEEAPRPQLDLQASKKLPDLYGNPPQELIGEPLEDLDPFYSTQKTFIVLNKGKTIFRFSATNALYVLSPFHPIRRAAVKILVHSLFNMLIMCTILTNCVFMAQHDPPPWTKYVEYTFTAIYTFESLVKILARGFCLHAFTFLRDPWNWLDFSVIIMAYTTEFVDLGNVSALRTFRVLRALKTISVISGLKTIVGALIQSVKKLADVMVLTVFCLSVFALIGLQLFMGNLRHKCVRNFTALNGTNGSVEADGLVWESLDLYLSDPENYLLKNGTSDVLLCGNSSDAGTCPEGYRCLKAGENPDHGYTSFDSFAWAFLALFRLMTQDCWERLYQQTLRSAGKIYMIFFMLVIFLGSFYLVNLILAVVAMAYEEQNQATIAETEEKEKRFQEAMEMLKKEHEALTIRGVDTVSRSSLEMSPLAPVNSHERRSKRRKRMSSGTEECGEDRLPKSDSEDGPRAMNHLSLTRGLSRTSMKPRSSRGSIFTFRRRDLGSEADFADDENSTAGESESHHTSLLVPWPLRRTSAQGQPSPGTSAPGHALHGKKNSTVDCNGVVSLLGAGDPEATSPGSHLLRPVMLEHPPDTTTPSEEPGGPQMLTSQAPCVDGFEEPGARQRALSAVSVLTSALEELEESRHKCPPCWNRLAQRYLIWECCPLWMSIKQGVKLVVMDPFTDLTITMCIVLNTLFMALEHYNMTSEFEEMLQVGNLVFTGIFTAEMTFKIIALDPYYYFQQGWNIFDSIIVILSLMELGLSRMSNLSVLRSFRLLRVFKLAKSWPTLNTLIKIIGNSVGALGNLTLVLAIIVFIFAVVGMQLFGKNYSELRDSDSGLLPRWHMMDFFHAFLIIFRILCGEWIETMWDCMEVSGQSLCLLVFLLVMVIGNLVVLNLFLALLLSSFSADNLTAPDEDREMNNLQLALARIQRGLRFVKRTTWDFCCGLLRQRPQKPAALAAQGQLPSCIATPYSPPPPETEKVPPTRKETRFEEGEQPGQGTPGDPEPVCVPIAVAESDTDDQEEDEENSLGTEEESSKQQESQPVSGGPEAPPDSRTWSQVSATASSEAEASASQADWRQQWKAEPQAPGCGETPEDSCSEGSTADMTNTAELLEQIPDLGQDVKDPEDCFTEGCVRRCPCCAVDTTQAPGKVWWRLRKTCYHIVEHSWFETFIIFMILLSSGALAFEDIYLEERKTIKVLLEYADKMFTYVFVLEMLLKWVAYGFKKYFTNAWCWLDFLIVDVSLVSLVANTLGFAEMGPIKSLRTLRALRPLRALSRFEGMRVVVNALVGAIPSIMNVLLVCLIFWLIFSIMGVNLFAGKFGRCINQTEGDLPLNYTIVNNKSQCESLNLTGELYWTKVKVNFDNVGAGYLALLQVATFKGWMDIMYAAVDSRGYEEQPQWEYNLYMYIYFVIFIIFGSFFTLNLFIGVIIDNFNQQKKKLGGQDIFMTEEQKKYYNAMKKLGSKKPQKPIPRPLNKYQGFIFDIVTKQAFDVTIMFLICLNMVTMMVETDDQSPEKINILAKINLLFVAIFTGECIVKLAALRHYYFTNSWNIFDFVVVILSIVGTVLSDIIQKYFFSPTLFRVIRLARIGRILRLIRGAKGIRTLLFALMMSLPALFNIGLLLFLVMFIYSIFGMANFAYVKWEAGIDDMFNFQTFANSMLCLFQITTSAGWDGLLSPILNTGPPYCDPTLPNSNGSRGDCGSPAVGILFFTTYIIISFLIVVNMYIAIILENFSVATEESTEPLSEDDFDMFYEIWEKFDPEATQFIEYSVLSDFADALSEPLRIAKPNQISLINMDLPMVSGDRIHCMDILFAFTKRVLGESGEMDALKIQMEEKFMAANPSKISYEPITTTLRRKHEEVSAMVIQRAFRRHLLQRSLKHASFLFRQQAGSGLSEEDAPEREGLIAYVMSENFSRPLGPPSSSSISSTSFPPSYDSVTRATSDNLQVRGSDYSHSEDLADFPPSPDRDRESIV
Chain of hNav1.7 (Q15858 whole entry, looked up): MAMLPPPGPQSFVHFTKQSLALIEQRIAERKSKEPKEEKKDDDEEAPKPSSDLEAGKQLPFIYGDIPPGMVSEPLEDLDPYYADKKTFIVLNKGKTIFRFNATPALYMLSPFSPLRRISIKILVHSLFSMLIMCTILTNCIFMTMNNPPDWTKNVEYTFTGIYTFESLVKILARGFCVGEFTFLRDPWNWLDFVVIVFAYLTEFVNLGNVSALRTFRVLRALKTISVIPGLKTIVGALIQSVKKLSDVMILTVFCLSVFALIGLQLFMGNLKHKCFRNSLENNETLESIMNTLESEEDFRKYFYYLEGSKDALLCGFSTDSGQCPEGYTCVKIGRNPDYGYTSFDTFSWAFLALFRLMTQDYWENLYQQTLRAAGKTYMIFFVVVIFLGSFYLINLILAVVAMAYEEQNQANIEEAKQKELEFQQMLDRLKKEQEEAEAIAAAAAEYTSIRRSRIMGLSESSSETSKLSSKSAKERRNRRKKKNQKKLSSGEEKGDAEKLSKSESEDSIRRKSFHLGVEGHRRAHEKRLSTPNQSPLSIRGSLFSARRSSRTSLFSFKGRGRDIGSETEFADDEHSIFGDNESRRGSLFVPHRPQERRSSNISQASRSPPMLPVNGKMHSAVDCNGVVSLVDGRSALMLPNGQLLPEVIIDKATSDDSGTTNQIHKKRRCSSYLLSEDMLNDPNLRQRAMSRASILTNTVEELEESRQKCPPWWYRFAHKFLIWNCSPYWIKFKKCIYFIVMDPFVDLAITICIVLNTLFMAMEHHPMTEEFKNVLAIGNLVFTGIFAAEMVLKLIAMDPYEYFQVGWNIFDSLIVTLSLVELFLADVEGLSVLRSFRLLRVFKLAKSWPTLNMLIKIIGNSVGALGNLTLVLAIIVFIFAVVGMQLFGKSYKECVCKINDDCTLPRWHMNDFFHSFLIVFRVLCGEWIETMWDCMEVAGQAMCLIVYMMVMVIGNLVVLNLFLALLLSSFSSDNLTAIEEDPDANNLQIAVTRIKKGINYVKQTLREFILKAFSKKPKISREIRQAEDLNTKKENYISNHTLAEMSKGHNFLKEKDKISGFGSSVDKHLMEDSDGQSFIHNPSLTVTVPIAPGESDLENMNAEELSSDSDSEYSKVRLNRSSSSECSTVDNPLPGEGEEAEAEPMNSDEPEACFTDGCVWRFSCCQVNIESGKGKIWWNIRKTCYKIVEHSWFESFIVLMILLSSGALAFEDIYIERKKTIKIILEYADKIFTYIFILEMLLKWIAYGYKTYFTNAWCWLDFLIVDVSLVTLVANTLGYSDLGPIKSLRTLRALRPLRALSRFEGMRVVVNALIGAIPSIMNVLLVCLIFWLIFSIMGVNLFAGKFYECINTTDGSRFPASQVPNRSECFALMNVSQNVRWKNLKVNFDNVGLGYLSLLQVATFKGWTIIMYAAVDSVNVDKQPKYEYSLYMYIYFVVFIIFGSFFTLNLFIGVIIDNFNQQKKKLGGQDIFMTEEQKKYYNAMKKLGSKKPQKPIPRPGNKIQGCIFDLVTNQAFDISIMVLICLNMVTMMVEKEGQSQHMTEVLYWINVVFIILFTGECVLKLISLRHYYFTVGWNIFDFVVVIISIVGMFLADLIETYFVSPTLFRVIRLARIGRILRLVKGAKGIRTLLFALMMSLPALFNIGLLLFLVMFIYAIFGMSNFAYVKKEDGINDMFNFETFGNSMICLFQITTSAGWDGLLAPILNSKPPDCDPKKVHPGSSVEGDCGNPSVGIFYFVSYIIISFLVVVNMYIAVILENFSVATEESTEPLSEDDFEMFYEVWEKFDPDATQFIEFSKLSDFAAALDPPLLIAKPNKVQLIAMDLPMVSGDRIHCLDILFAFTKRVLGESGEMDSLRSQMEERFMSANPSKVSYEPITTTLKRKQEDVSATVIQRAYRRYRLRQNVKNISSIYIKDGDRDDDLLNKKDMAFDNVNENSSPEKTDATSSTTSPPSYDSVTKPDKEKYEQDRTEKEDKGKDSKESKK

On to `CC[C@H](C)[C@@H]1NC(=O)[C@@H]2CSSC[C@@H]3NC(=O)[C@H](C(C)C)NC(=O)[C@H](CC(C)C)NC(=O)[C@H](CC(N)=O)NC(=O)[C@@H]4CCCN4C(=O)[C@H](CCCNC(=N)N)NC(=O)[C@H](CSSC[C@H](NC(=O)[C@@H](N)CC(=O)O)C(=O)N[C@@H](CC(C)C)C(=O)NCC(=O)N[C@@H](CO)C(=O)N[C@@H](Cc4ccccc4)C(=O)N[C@@H](CCCNC(=N)N)C(=O)N[C@@H](CCCCN)C(=O)N2)NC(=O)[C@H](CSSC[C@@H](C(=O)N[C@@H](CCCCN)C(=O)N[C@@H](Cc2ccc(O)cc2)C(=O)N[C@H](C(=O)N[C@@H](Cc2ccccc2)C(N)=O)C(C)C)NC(=O)[C@H](Cc2c[nH]c4ccccc24)NC(=O)[C@H](CCCCN)NC(=O)[C@H](Cc2c[nH]cn2)NC(=O)[C@H]([C@@H](C)O)NC(=O)[C@H](CCCNC(=N)N)NC(=O)[C@H](CO)NC3=O)NC(=O)[C@H](CCCCN)NC(=O)[C@H](CC(=O)O)NC(=O)[C@H](CC(N)=O)NC(=O)[C@H](CC(=O)O)NC(=O)[C@@H]2CCCN2C1=O` [compound 617] (H-DCLGSFRKCIPDNDKCCRPNLVCSRTHKWCKYVF-NH2; disulfide 2-17, 9-23, 16-30), for which the IC50 worked out at 760 nM at hNav1.7, 11.9 µM at hNav1.5 and 1700 nM on hNav1.3.
`CC[C@H](C)[C@@H]1NC(=O)[C@@H]2CSSC[C@@H]3NC(=O)[C@H](C(C)C)NC(=O)[C@H](CC(C)C)NC(=O)[C@H](CC(N)=O)NC(=O)[C@@H]4CCCN4C(=O)[C@H](CCCNC(=N)N)NC(=O)[C@H](CSSC[C@H](NC(=O)[C@@H](N)CC(=O)O)C(=O)N[C@@H](CC(C)C)C(=O)NCC(=O)N[C@@H](C(C)C)C(=O)N[C@@H](Cc4ccccc4)C(=O)N[C@@H](CCCNC(=N)N)C(=O)N[C@@H](CCCCN)C(=O)N2)NC(=O)[C@H](CSSC[C@@H](C(=O)N[C@@H](CCCCN)C(=O)N[C@@H](Cc2ccc(O)cc2)C(=O)N[C@H](C(=O)N[C@@H](Cc2ccccc2)C(N)=O)C(C)C)NC(=O)[C@H](Cc2c[nH]c4ccccc24)NC(=O)[C@H](CCCCN)NC(=O)[C@H](Cc2c[nH]cn2)NC(=O)[C@H]([C@@H](C)O)NC(=O)[C@H](CCCNC(=N)N)NC(=O)[C@H](CO)NC3=O)NC(=O)[C@H](CCCCN)NC(=O)[C@H](CC(=O)O)NC(=O)[C@H](CC(N)=O)NC(=O)[C@H](CC(=O)O)NC(=O)[C@@H]2CCCN2C1=O` [compound 618] (H-DCLGVFRKCIPDNDKCCRPNLVCSRTHKWCKYVF-NH2; disulfide 2-17, 9-23, 16-30): the IC50 was 120 nM on hNav1.7, 9.4 µM on hNav1.5 and 99 nM on hNav1.3.
In the same order, the values of `CC[C@H](C)[C@@H]1NC(=O)[C@@H]2CSSC[C@@H]3NC(=O)[C@H](C(C)C)NC(=O)[C@H](CC(C)C)NC(=O)[C@H](CC(N)=O)NC(=O)[C@@H]4CCCN4C(=O)[C@H](CCCNC(=N)N)NC(=O)[C@H](CSSC[C@H](NC(=O)[C@@H](N)CC(=O)O)C(=O)N[C@@H](CC(C)C)C(=O)NCC(=O)N[C@@H](Cc4ccc(C(=O)c5ccccc5)cc4)C(=O)N[C@@H](Cc4ccccc4)C(=O)N[C@@H](CCCNC(=N)N)C(=O)N[C@@H](CCCCN)C(=O)N2)NC(=O)[C@H](CSSC[C@@H](C(=O)N[C@@H](CCCCN)C(=O)N[C@@H](Cc2ccc(O)cc2)C(=O)N[C@H](C(=O)N[C@@H](Cc2ccccc2)C(N)=O)C(C)C)NC(=O)[C@H](Cc2c[nH]c4ccccc24)NC(=O)[C@H](CCCCN)NC(=O)[C@H](Cc2c[nH]cn2)NC(=O)[C@H]([C@@H](C)O)NC(=O)[C@H](CCCNC(=N)N)NC(=O)[C@H](CO)NC3=O)NC(=O)[C@H](CCCCN)NC(=O)[C@H](CC(=O)O)NC(=O)[C@H](CC(N)=O)NC(=O)[C@H](CC(=O)O)NC(=O)[C@@H]2CCCN2C1=O` [compound 619] (H-DCLG[Bpa]FRKCIPDNDKCCRPNLVCSRTHKWCKYVF-NH2; disulfide 2-17, 9-23, 16-30) are 140 nM, 7.7 µM and 42 nM.
In the same order, the values of `CC[C@H](C)[C@@H]1NC(=O)[C@@H]2CSSC[C@@H]3NC(=O)[C@H](C(C)C)NC(=O)[C@H](CC(C)C)NC(=O)[C@H](CC(N)=O)NC(=O)[C@@H]4CCCN4C(=O)[C@H](CCCNC(=N)N)NC(=O)[C@H](CSSC[C@H](NC(=O)[C@@H](N)CC(=O)O)C(=O)N[C@@H](CC(C)C)C(=O)NCC(=O)N[C@@H](Cc4ccc(OC)c(OC)c4)C(=O)N[C@@H](Cc4ccccc4)C(=O)N[C@@H](CCCNC(=N)N)C(=O)N[C@@H](CCCCN)C(=O)N2)NC(=O)[C@H](CSSC[C@@H](C(=O)N[C@@H](CCCCN)C(=O)N[C@@H](Cc2ccc(O)cc2)C(=O)N[C@H](C(=O)N[C@@H](Cc2ccccc2)C(N)=O)C(C)C)NC(=O)[C@H](Cc2c[nH]c4ccccc24)NC(=O)[C@H](CCCCN)NC(=O)[C@H](Cc2c[nH]cn2)NC(=O)[C@H]([C@@H](C)O)NC(=O)[C@H](CCCNC(=N)N)NC(=O)[C@H](CO)NC3=O)NC(=O)[C@H](CCCCN)NC(=O)[C@H](CC(=O)O)NC(=O)[C@H](CC(N)=O)NC(=O)[C@H](CC(=O)O)NC(=O)[C@@H]2CCCN2C1=O` [compound 620] (H-DCLG[Phe(3,4-(OMe)2)]FRKCIPDNDKCCRPNLVCSRTHKWCKYVF-NH2; disulfide 2-17, 9-23, 16-30) are 640 nM, 10.4 µM and 990 nM.
Regarding `CC[C@H](C)[C@@H]1NC(=O)[C@@H]2CSSC[C@@H]3NC(=O)[C@H](C(C)C)NC(=O)[C@H](CC(C)C)NC(=O)[C@H](CC(N)=O)NC(=O)[C@@H]4CCCN4C(=O)[C@H](CCCNC(=N)N)NC(=O)[C@H](CSSC[C@H](NC(=O)[C@@H](N)CC(=O)O)C(=O)N[C@@H](CC(C)C)C(=O)NCC(=O)N[C@@H](Cc4ccc(Cl)c(Cl)c4)C(=O)N[C@@H](Cc4ccccc4)C(=O)N[C@@H](CCCNC(=N)N)C(=O)N[C@@H](CCCCN)C(=O)N2)NC(=O)[C@H](CSSC[C@@H](C(=O)N[C@@H](CCCCN)C(=O)N[C@@H](Cc2ccc(O)cc2)C(=O)N[C@H](C(=O)N[C@@H](Cc2ccccc2)C(N)=O)C(C)C)NC(=O)[C@H](Cc2c[nH]c4ccccc24)NC(=O)[C@H](CCCCN)NC(=O)[C@H](Cc2c[nH]cn2)NC(=O)[C@H]([C@@H](C)O)NC(=O)[C@H](CCCNC(=N)N)NC(=O)[C@H](CO)NC3=O)NC(=O)[C@H](CCCCN)NC(=O)[C@H](CC(=O)O)NC(=O)[C@H](CC(N)=O)NC(=O)[C@H](CC(=O)O)NC(=O)[C@@H]2CCCN2C1=O` [compound 621] (H-DCLG[Phe(3,4-Cl2)]FRKCIPDNDKCCRPNLVCSRTHKWCKYVF-NH2; disulfide 2-17, 9-23, 16-30), the IC50 on hNav1.7 is 48 nM; at hNav1.5, 4.1 µM; on hNav1.3, 5 nM.
Take `CC[C@H](C)[C@@H]1NC(=O)[C@@H]2CSSC[C@@H]3NC(=O)[C@H](C(C)C)NC(=O)[C@H](CC(C)C)NC(=O)[C@H](CC(N)=O)NC(=O)[C@@H]4CCCN4C(=O)[C@H](CCCNC(=N)N)NC(=O)[C@H](CSSC[C@H](NC(=O)[C@@H](N)CC(=O)O)C(=O)N[C@@H](CC(C)C)C(=O)NCC(=O)N[C@@H](Cc4ccc(I)cc4)C(=O)N[C@@H](Cc4ccccc4)C(=O)N[C@@H](CCCNC(=N)N)C(=O)N[C@@H](CCCCN)C(=O)N2)NC(=O)[C@H](CSSC[C@@H](C(=O)N[C@@H](CCCCN)C(=O)N[C@@H](Cc2ccc(O)cc2)C(=O)N[C@H](C(=O)N[C@@H](Cc2ccccc2)C(N)=O)C(C)C)NC(=O)[C@H](Cc2c[nH]c4ccccc24)NC(=O)[C@H](CCCCN)NC(=O)[C@H](Cc2c[nH]cn2)NC(=O)[C@H]([C@@H](C)O)NC(=O)[C@H](CCCNC(=N)N)NC(=O)[C@H](CO)NC3=O)NC(=O)[C@H](CCCCN)NC(=O)[C@H](CC(=O)O)NC(=O)[C@H](CC(N)=O)NC(=O)[C@H](CC(=O)O)NC(=O)[C@@H]2CCCN2C1=O` [compound 622] (H-DCLG[Phe(4-I)]FRKCIPDNDKCCRPNLVCSRTHKWCKYVF-NH2; disulfide 2-17, 9-23, 16-30): the IC50 was found to be 12300 nM at hNav1.7, 12.9 µM at hNav1.5 and 21000 nM at hNav1.3.
In the same order, the values of `CC[C@H](C)[C@@H]1NC(=O)[C@@H]2CSSC[C@@H]3NC(=O)[C@H](C(C)C)NC(=O)[C@H](CC(C)C)NC(=O)[C@H](CC(N)=O)NC(=O)[C@@H]4CCCN4C(=O)[C@H](CCCNC(=N)N)NC(=O)[C@H](CSSC[C@H](NC(=O)[C@@H](N)CC(=O)O)C(=O)N[C@@H](CC(C)C)C(=O)NCC(=O)N[C@@H](Cc4ccc(C(F)(F)F)cc4)C(=O)N[C@@H](Cc4ccccc4)C(=O)N[C@@H](CCCNC(=N)N)C(=O)N[C@@H](CCCCN)C(=O)N2)NC(=O)[C@H](CSSC[C@@H](C(=O)N[C@@H](CCCCN)C(=O)N[C@@H](Cc2ccc(O)cc2)C(=O)N[C@H](C(=O)N[C@@H](Cc2ccccc2)C(N)=O)C(C)C)NC(=O)[C@H](Cc2c[nH]c4ccccc24)NC(=O)[C@H](CCCCN)NC(=O)[C@H](Cc2c[nH]cn2)NC(=O)[C@H]([C@@H](C)O)NC(=O)[C@H](CCCNC(=N)N)NC(=O)[C@H](CO)NC3=O)NC(=O)[C@H](CCCCN)NC(=O)[C@H](CC(=O)O)NC(=O)[C@H](CC(N)=O)NC(=O)[C@H](CC(=O)O)NC(=O)[C@@H]2CCCN2C1=O` [compound 623] (H-DCLG[Phe(4-CF3)]FRKCIPDNDKCCRPNLVCSRTHKWCKYVF-NH2; disulfide 2-17, 9-23, 16-30) are 96 nM, 7.1 µM and 13 nM.

The record behind these values is patent US9340590B2 (priority 2011, dated 2016).
